In brackets after ≈: the same amount, converted by molar mass.
Legend:
SK-OV-3 = test: Antitumor activity against human SKOV3 cells assessed as cell growth at 0.1 uM; format: functional; conditions: read-out: Activity
SN12C = test: Antitumor activity against human SN12C cells assessed as cell growth at 0.1 uM; format: functional; conditions: read-out: Activity
HL-60 = test: Antitumor activity against human HL60(TB) cells assessed as cell growth at 0.1 uM; format: functional; conditions: read-out: Activity
SK-MEL-28 = test: Antitumor activity against human SK-MEL-28 cells assessed as cell growth at 0.1 uM; format: functional; conditions: read-out: Activity
HCT-116 = test: Antitumor activity against human HCT116 cells assessed as cell growth at 0.1 uM; format: functional; conditions: read-out: Activity
786-0 = test: Antitumor activity against human 786-0 cells assessed as cell growth at 0.1 uM; format: functional; conditions: read-out: Activity
[1] = tested on: Mycobacterium tuberculosis; test: Antitubercular activity against Mycobacterium tuberculosis H37Rv assessed as growth inhibition after 12 to 28 days by L.J. agar MIC method; format: functional
MDA-MB-435 = test: Antitumor activity against human MDA-MB-435 cells assessed as cell growth at 0.1 uM; format: functional; conditions: read-out: Activity
OVCAR-4 = test: Antitumor activity against human OVCAR4 cells assessed as cell growth at 0.1 uM; format: functional; conditions: read-out: Activity
SF-268 = test: Antitumor activity against human SF268 cells assessed as cell growth at 0.1 uM; format: functional; conditions: read-out: Activity
[2] = Antitumor activity against human Hs 578T cells assessed as cell growth at 0.1 uM; format: functional; conditions: read-out: Activity
HCT-15 = test: Antitumor activity against human HCT15 cells assessed as cell growth at 0.1 uM; format: functional; conditions: read-out: Activity
RXF 393 = test: Antitumor activity against human RXF393 cells assessed as cell growth at 0.1 uM; format: functional; conditions: read-out: Activity
UACC-62 = test: Antitumor activity against human UACC62 cells assessed as cell growth at 0.1 uM; format: functional; conditions: read-out: Activity
HOP-62 = test: Antitumor activity against human HOP62 cells assessed as cell growth at 0.1 uM; format: functional; conditions: read-out: Activity
SF-295 = test: Antitumor activity against human SF295 cells assessed as cell growth at 0.1 uM; format: functional; conditions: read-out: Activity
OVCAR-8 = test: Antitumor activity against human OVCAR8 cells assessed as cell growth at 0.1 uM; format: functional; conditions: read-out: Activity
[3] = Antitumor activity against human EKVX cells assessed as cell growth at 0.1 uM; format: functional; conditions: read-out: Activity
RPMI-8226 = test: Antitumor activity against human RPMI8226 cells assessed as cell growth at 0.1 uM; format: functional; conditions: read-out: Activity
SK-MEL-2 = test: cells; conditions: Homo sapiens, SK-MEL-2, read-out: Activity
Description: Antitumor activity against human SK-MEL-2 cells assessed as cell growth at 0.1 uM

KM12 = test: Antitumor activity against human KM12 cells assessed as cell growth at 0.1 uM; format: functional; conditions: read-out: Activity
SK-MEL-5 = test: Antitumor activity against human SK-MEL-5 cells assessed as cell growth at 0.1 uM; format: functional; conditions: read-out: Activity
MDA-MB-468 = test: Antitumor activity against human MDA-MB-468 cells assessed as cell growth at 0.1 uM; format: functional; conditions: read-out: Activity
OVCAR-3 = test: Antitumor activity against human OVCAR3 cells assessed as cell growth at 0.1 uM; format: functional; conditions: read-out: Activity
Escherichia coli = test: Antimicrobial activity against Escherichia coli MTCC 443 assessed as growth inhibition measured after overnight incubation by broth dilution method; format: functional
M14 = test: Antitumor activity against human M14 cells assessed as cell growth at 0.1 uM; format: functional; conditions: read-out: Activity
U-251 = test: Antitumor activity against human U251 cells assessed as cell growth at 0.1 uM; format: functional; conditions: read-out: Activity
A498 = test: Antitumor activity against human A498 cells assessed as cell growth at 0.1 uM; format: functional; conditions: read-out: Activity
Aspergillus niger = test: Antimicrobial activity against Aspergillus niger MTCC 282 assessed as growth inhibition measured after overnight incubation by broth dilution method; format: functional
NCI/ADR-RES = test: Antitumor activity against human NCI/ADR-RES cells assessed as cell growth at 0.1 uM; format: functional; conditions: read-out: Activity
A549 = test: Antitumor activity against human A549/ATCC cells assessed as cell growth at 0.1 uM; format: functional; conditions: read-out: Activity
SNB-19 = test: Antitumor activity against human SNB19 cells assessed as cell growth at 0.1 uM; format: functional; conditions: read-out: Activity
BT-549 = test: Antitumor activity against human BT549 cells assessed as cell growth at 0.1 uM; format: functional; conditions: read-out: Activity
Pseudomonas aeruginosa = test: Antimicrobial activity against Pseudomonas aeruginosa MTCC 2488 assessed as growth inhibition measured after overnight incubation by broth dilution method; format: functional
T47D = test: Antitumor activity against human T47D cells assessed as cell growth at 0.1 uM; format: functional; conditions: read-out: Activity
ACHN = test: Antitumor activity against human ACHN cells assessed as cell growth at 0.1 uM; format: functional; conditions: read-out: Activity
OVCAR-5 = test: Antitumor activity against human OVCAR5 cells assessed as cell growth at 0.1 uM; format: functional; conditions: read-out: Activity
Malme-3M = test: Antitumor activity against human MALME-3M cells assessed as cell growth at 0.1 uM; format: functional; conditions: read-out: Activity
NCI-H460 = test: Antitumor activity against human NCI-H460 cells assessed as cell growth at 0.1 uM; format: functional; conditions: read-out: Activity
SNB-75 = test: Antitumor activity against human SNB75 cells assessed as cell growth at 0.1 uM; format: functional; conditions: read-out: Activity
TK-10 = test: Antitumor activity against human TK10 cells assessed as cell growth at 0.1 uM; format: functional; conditions: read-out: Activity
K562 = test: Antitumor activity against human K562 cells assessed as cell growth at 0.1 uM; format: functional; conditions: read-out: Activity
Staphylococcus aureus = test: Antimicrobial activity against Staphylococcus aureus MTCC 96 assessed as growth inhibition measured after overnight incubation by broth dilution method; format: functional
IGROV-1 = test: Antitumor activity against human IGROV1 cells assessed as cell growth at 0.1 uM; format: functional; conditions: read-out: Activity
MDA-MB-231 = test: Antitumor activity against human MDA-MB-231/ATCC cells assessed as cell growth at 0.1 uM; format: functional; conditions: read-out: Activity
NCI-H23 = test: Antitumor activity against human NCI-H23 cells assessed as cell growth at 0.1 uM; format: functional; conditions: read-out: Activity
HT-29 = test: Antitumor activity against human HT-29 cells assessed as cell growth at 0.1 uM; format: functional; conditions: read-out: Activity
Aspergillus clavatus = test: Antimicrobial activity against Aspergillus clavatus MTCC 1323 assessed as growth inhibition measured after overnight incubation by broth dilution method; format: functional
Streptococcus pyogenes = test: Antimicrobial activity against Streptococcus pyogenes MTCC 442 assessed as growth inhibition measured after overnight incubation by broth dilution method; format: functional
[4] = Antitumor activity against human HCC2998 cells assessed as cell growth at 0.1 uM; format: functional; conditions: HCC 2998, read-out: Activity
MCF7 = test: Antitumor activity against human MCF7 cells assessed as cell growth at 0.1 uM; format: functional; conditions: read-out: Activity
SW-620 = test: Antitumor activity against human SW620 cells assessed as cell growth at 0.1 uM; format: functional; conditions: read-out: Activity
DU-145 = test: Antitumor activity against human DU145 cells assessed as cell growth at 0.1 uM; format: functional; conditions: read-out: Activity
PC-3 = test: Antitumor activity against human PC3 cells assessed as cell growth at 0.1 uM; format: functional; conditions: read-out: Activity
NCI-H522 = test: Antitumor activity against human NCI-H522 cells assessed as cell growth at 0.1 uM; format: functional; conditions: read-out: Activity
COLO 205 = test: Antitumor activity against human COLO205 cells assessed as cell growth at 0.1 uM; format: functional; conditions: read-out: Activity
SF-539 = test: Antitumor activity against human SF539 cells assessed as cell growth at 0.1 uM; format: functional; conditions: read-out: Activity
UACC-257 = test: Antitumor activity against human UACC257 cells assessed as cell growth at 0.1 uM; format: functional; conditions: read-out: Activity
Candida albicans = test: Antimicrobial activity against Candida albicans MTCC 227 assessed as growth inhibition measured after overnight incubation by broth dilution method; format: functional
HOP-92 = test: Antitumor activity against human HOP92 cells assessed as cell growth at 0.1 uM; format: functional; conditions: read-out: Activity
LOX IMVI = test: Antitumor activity against human LOXIMVI cells assessed as cell growth at 0.1 uM; format: functional; conditions: read-out: Activity
UO-31 = test: Antitumor activity against human UO31 cells assessed as cell growth at 0.1 uM; format: functional; conditions: read-out: Activity
SR = test: Antitumor activity against human SR cells assessed as cell growth at 0.1 uM; format: functional; conditions: read-out: Activity
MOLT-4 = test: Antitumor activity against human MOLT4 cells assessed as cell growth at 0.1 uM; format: functional; conditions: read-out: Activity
CAKI-1 = test: Antitumor activity against human CAKI-1 cells assessed as cell growth at 0.1 uM; format: functional; conditions: read-out: Activity

## CN1CCN(C(=O)CSc2nnc(-c3cccnc3SCc3ccccc3)o2)CC1
SK-OV-3
  growth at 0.1 µM: 101%
SN12C
  growth at 0.1 µM: 64.2%
HL-60
  growth at 0.1 µM: 70.3%
SK-MEL-28
  growth at 0.1 µM: 107%
HCT-116
  growth at 0.1 µM: 94.7%
786-0
  growth at 0.1 µM: 109%
[1]
  growth inhibition (GI): 97%
[1]; Mycobacterium tuberculosis, H37Rv
  MIC: 250 µg/mL (≈ 566 µM)
MDA-MB-435
  growth at 0.1 µM: 93.8%
OVCAR-4
  growth at 0.1 µM: 57.4%
SF-268
  growth at 0.1 µM: 67.5%
[2]
  growth at 0.1 µM: 93.2%
HCT-15
  growth at 0.1 µM: 86.5%
RXF 393
  growth at 0.1 µM: 89.1%
UACC-62
  growth at 0.1 µM: 76.8%
HOP-62
  growth at 0.1 µM: 97%
SF-295
  growth at 0.1 µM: 89.6%
OVCAR-8
  growth at 0.1 µM: 97.7%
[3]
  growth at 0.1 µM: 70.7%
RPMI-8226
  growth at 0.1 µM: 61.5%
SK-MEL-2
  growth at 0.1 µM: 101%
KM12
  growth at 0.1 µM: 72.8%
SK-MEL-5
  growth at 0.1 µM: 84.8%
MDA-MB-468
  growth at 0.1 µM: 74.8%
OVCAR-3
  growth at 0.1 µM: 92%
Escherichia coli
  MIC: 100 µg/mL (≈ 226 µM)
M14
  growth at 0.1 µM: 99.6%
U-251
  growth at 0.1 µM: 83.9%
A498
  growth at 0.1 µM: 78.5%
Aspergillus niger
  MIC: 500 µg/mL (≈ 1130 µM)
NCI/ADR-RES
  growth at 0.1 µM: 89.2%
A549
  growth at 0.1 µM: 68.5%
SNB-19
  growth at 0.1 µM: 82%
BT-549
  growth at 0.1 µM: 95.4%
Pseudomonas aeruginosa
  MIC: 200 µg/mL (≈ 453 µM)
T47D
  growth at 0.1 µM: 55.3%
ACHN
  growth at 0.1 µM: 80.8%
OVCAR-5
  growth at 0.1 µM: 101%
Malme-3M
  growth at 0.1 µM: 97.1%
NCI-H460
  growth at 0.1 µM: 90.1%
SNB-75
  growth at 0.1 µM: 83%
TK-10
  growth at 0.1 µM: 115%
K562
  growth at 0.1 µM: 83%
Staphylococcus aureus
  MIC: 250 µg/mL (≈ 566 µM)
IGROV-1
  growth at 0.1 µM: 75.3%
MDA-MB-231
  growth at 0.1 µM: 56.5%
NCI-H23
  growth at 0.1 µM: 87.6%
HT-29
  growth at 0.1 µM: 93.7%
Aspergillus clavatus
  MIC: 1000 µg/mL (≈ 2260 µM)
Streptococcus pyogenes
  MIC: 125 µg/mL (≈ 283 µM)
[4]
  growth at 0.1 µM: 90.5%
MCF7
  growth at 0.1 µM: 76.7%
SW-620
  growth at 0.1 µM: 97.2%
DU-145
  growth at 0.1 µM: 81.7%
PC-3
  growth at 0.1 µM: 57.4%
NCI-H522
  growth at 0.1 µM: 71.3%
COLO 205
  growth at 0.1 µM: 110%
SF-539
  growth at 0.1 µM: 98.6%
UACC-257
  growth at 0.1 µM: 96.8%
Candida albicans
  MIC: 500 µg/mL (≈ 1130 µM)
HOP-92
  growth at 0.1 µM: 43.3%
LOX IMVI
  growth at 0.1 µM: 90.3%
UO-31
  growth at 0.1 µM: 30.9%
SR
  growth at 0.1 µM: 79.8%
MOLT-4
  growth at 0.1 µM: 48.2%
CAKI-1
  growth at 0.1 µM: 93.4%
